# Where “and” joins values, the source holds several entries; their conditions need not be identical. Equal values may be shown once. Read-outs that look alike come from different tables or passages of the source.
# Columns and labels:
# recombinant HcProRS = target: T1, recombinant HcProRS (Homo sapiens, UniProt P07814); assay: fluorescence-based thermal shift assay (TSA); format: binding; details: for Tm with 1 mM L-Pro / Tm without L-Pro / ∆Tm with 1 mM L-Pro / ∆Tm without L-Pro: 100 µM compound; for Tm with 1 mM L-Pro / Tm without L-Pro / ∆Tm with 1 mM L-Pro / EC50 / ∆Tm without L-Pro: 3.45 µM HcProRS; for Tm with 1 mM L-Pro: reference Tm with Pro only 60.20; for Tm without L-Pro / ∆Tm without L-Pro: absence of Pro; for Tm without L-Pro: reference Tm of HcProRS 56.15; for ∆Tm with 1 mM L-Pro: versus HcProRS with 1 mM Pro only; for fold better (lower) EC50 compared with 4d: relative to 4d; for ∆Tm without L-Pro: difference of Tm with and without compound; for effect on Tm (in words): full datasets, with and without Pro
# T1 construct: SUMO (N, cleaved yes); made in house; host or cells: E. coli Rosetta 2 (DE3) pLysS
# T1 sequence (P07814 1001-1512): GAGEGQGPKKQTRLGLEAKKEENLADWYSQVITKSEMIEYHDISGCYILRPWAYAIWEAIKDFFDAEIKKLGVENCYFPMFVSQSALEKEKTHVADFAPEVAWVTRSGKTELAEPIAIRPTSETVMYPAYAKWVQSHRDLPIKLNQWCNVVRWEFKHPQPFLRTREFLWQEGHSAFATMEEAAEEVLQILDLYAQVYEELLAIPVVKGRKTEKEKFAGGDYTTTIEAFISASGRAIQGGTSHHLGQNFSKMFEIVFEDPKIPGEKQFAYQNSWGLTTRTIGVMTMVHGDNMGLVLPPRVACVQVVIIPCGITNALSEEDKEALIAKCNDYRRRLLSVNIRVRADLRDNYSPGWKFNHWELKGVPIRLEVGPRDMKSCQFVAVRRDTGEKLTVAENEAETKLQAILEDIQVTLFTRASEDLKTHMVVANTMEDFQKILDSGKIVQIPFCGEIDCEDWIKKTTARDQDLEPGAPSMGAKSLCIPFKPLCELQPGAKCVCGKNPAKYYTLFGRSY
# Experimental: Compound binding usually helps to stabilize the protein due to protein-ligand interactions, resulting in an increase of the melting temperature (Tm) of the target protein during the thermal denaturation process. Each compound was pre-tested at 100 µM concentration against 3.45 µM HcProRS in the absence and presence of 1 mM Pro. The ∆Tm was calculated based on the difference between the Tm values of HcProRS with and without compound. […] In the presence of the natural substrate Pro, the Tm of HcProRS increased by 4 °C. […] In a second-tier characterization, the Tm-based EC50 values of these five hits were determined. […] This is in good agreement with the prior reported improved binding affinity and inhibitory activity of 2a in the presence of Pro when compared to the corresponding values obtained without Pro [16].
# A total of 0.2 mg/mL HcProRS (corresponding to 3.45 µM) was incubated with various concentrations of different compounds in the absence or presence of 1 mM L-Pro with 1x thermal shift dye (Life Technologies, California, USA) in reaction buffer containing 50 mM HEPES pH 7.0, 150 mM KCl and 10% (v/v) ethylene glycol. Aliquots (20 µL) were transferred to a 96-well PCR plate in triplicate. After centrifugation to remove air bubbles, the plate was measured in Applied Biosystems® Protein Thermal Shift machine and subjected to a thermal gradient from 4 °C to 95 °C with the increasing rate of 0.05 °C/s. The fluorescence was detected by Protein Thermal Shift™ Software (Life Technologies, California, USA). Data analysis was performed by Boltzmann sigmoidal fitting to calculate melting temperature (Tm).
# Figure S2. Dose-response melting curves of HcProRS in the presence of compound and 1 mM Pro. The melting temperature (Tm) at each compound concentration was determined by TSA with 3.45 µM of HcProRS. The reported EC50 values are based on the fitted curves. All reactions were performed in triplicate, the average values and standard errors are shown.
# (1 picture or pasted object on this page, not shown here)
# HcProRS [1] = target: HcProRS; set-up: method as in PMID 28501621; details: in the presence of Pro; cited from earlier work
# HcProRS [2] = test system: HcProRS; set-up: method as in PMID 28501621; details: ATP/PPi exchange assay in vitro; read-out: IC50, HcProRS inhibitory activity; cited from earlier work
# HcProRS versus ThrRS = test system: HcProRS versus ThrRS; set-up: method as in PMID 28501621; details: reportedly; cited from earlier work
# [3] = 1 mM Pro, read-out: EC50 (Tm-based) with 1 mM L-Pro
SMILES,Tm with 1 mM L-Pro (recombinant HcProRS; 1 mM Pro) [°C],Tm without L-Pro (recombinant HcProRS) [°C],∆Tm with 1 mM L-Pro (recombinant HcProRS),EC50 (recombinant HcProRS; [3]) [µM],∆Tm without L-Pro (recombinant HcProRS),further results
"O=C(O)[C@@H]1CCCN1 [Pro, proline]",,,,,,"increase of Tm of HcProRS by natural substrate Pro (recombinant HcProRS; 1 mM Pro, no compound): 4 °C"
Cc1ccccc1CNC(=O)c1nccnc1NCc1ccccc1C [3c],62.72,55.25,+2.52 °C,7.34 ± 1.66,−0.90 °C,fold better (lower) EC50 compared with 4d (recombinant HcProRS; TSA EC50 with 1 mM Pro): 12.4 fold
"O=C(O)c1cnccn1 [POA, pyrazinoic acid, reference compound]",59.06,55.52,−1.14 °C,,−0.63 °C,effect on Tm (in words) (recombinant HcProRS): no effect on Tm
O=C(NCc1ccc(F)cc1)c1nccnc1NCc1ccc(F)cc1 [3a],58.21,55.25,−1.99 °C,,−0.90 °C,
"NC(=O)c1cnccn1 [PZA, pyrazinamide]",59.04,56.06,−1.16 °C,,−0.09 °C,effect on Tm (in words) (recombinant HcProRS): no effect on Tm
"O=C(NC1Cc2ccccc2C1)c1nccnc1NC(=O)C1CCCCC1 [2a, 3-(cyclohexanecarboxamido)-N-(2,3-dihydro-1H-inden-2-yl)pyrazine-2-carboxamide, reference compound]",73.35,63.15,,3.74 ± 0.67,,"Kd (HcProRS [1]): 0.00076 µM; EC50 (recombinant HcProRS; no Pro, read-out: EC50 (Tm-based) in the absence of Pro): 30.3 ± 3.63 µM; IC50 (HcProRS [2]): 0.012 µM; selectivity for HcProRS versus ThrRS (HcProRS versus ThrRS): 2500 fold"
O=C(NCc1ccccc1Cl)c1nccnc1NCc1ccccc1Cl [3b],64.92,56.05,+4.72 °C,3.77 ± 0.85,−0.10 °C,"fold lower EC50 relative to 3c (recombinant HcProRS; TSA EC50 with 1 mM Pro, relative to 3c): 2 fold; fold lower EC50 compared with 4h (recombinant HcProRS; TSA EC50 with 1 mM Pro, relative to 4h): 3.6 fold"
"Nc1nccnc1C(=O)O [3-NH2-POA, 3-aminopyrazinoic acid, reference compound]",59.50,55.87,−0.70 °C,,−0.28 °C,effect on Tm (in words) (recombinant HcProRS): no effect on Tm

# Continued, in another order:
Tm with 1 mM L-Pro (recombinant HcProRS; 1 mM Pro) [°C],Tm without L-Pro (recombinant HcProRS) [°C],∆Tm with 1 mM L-Pro (recombinant HcProRS),EC50 (recombinant HcProRS; [3]) [µM],∆Tm without L-Pro (recombinant HcProRS),SMILES,further results
67.12,58.13,+6.92 °C,15.3 ± 1.04,,NC(=O)c1nccnc1NCc1ccccc1C(F)(F)F [4j],fold better (lower) EC50 compared with 4d (recombinant HcProRS; TSA EC50 with 1 mM Pro): 6 fold and 7 fold
58.48,56.08,−1.72 °C,,−0.07 °C,COc1ccc(CNc2nccnc2C(N)=O)c(OC)c1 [4k],
58.33,56.34,−1.87 °C,,+0.19 °C,COc1ccc(CNc2nccnc2C(N)=O)cc1 [4f],
60.30,55.46,+0.10 °C,,−0.69 °C,NC(=O)c1nccnc1NCc1ccccc1F [4i],
57.47,54.57,−2.73 °C,,−1.58 °C,NC(=O)c1nccnc1NCc1ccc(Cl)c(Cl)c1 [4c],
59.09,55.76,−1.11 °C,,−0.39 °C,Cc1ccc(CNc2nccnc2C(N)=O)cc1 [4g],
62.47,57.04,+2.27 °C,13.6 ± 3.27,,NC(=O)c1nccnc1NCc1ccccc1Cl [4h],fold better (lower) EC50 compared with 4d (recombinant HcProRS; TSA EC50 with 1 mM Pro): 6 fold and 7 fold
59.36,55.80,−0.84 °C,,−0.35 °C,NC(=O)c1nccnc1NCc1ccccc1 [4a],
58.70,55.06,−1.5 °C,,−1.09 °C,NC(=O)c1nccnc1NCc1ccc(Cl)cc1 [4e],
60.42,55.38,+0.22 °C,,−0.77 °C,NC(=O)c1nccnc1NCc1cccc(Cl)c1 [4b],
63.33,55.91,+3.13 °C,91.1 ± 18.4,−0.24 °C,Cc1ccccc1CNc1nccnc1C(N)=O [4d],

# Reference: publication PMC8346053, “Towards Novel 3-Aminopyrazinamide-Based Prolyl-tRNA Synthetase Inhibitors: In Silico Modelling, Thermal Shift Assay and Structural Studies” (International Journal of Molecular Sciences, 2021)
